Data on two compounds can be found in patent publication US12377069B2, “Compounds, compositions, methods of using, and methods for preparing compounds” (UNIVERSITY OF LOUISVILLE RESEARCH FOUNDATION, INC., priority 2018, dated 2025).

Assay [1] has as its system mouse bone marrow derived macrophages (BMDMs). Put plainly: LPS-induced IL-6 and TNF-α in BMDM. The format is cell-based. The settings on record: for LPS-induced IL-6 production in AhR^−/− macrophages: AhR^−/− BMDM, up to 30 NM; for LPS induced IL-6 and TNF-α: 0.1-50 μM; for IL-6 in Nrf2^−/− (fold reduction; TNBS model and LPS-induced BMDM): Nrf2^−/− vs WT. As to the method:
Measurements of IL-6 and TNF-α in BMDM: BMDM were plated in 96 (10,000 cells/well) and 12 wells (0.1×10^6 cells/well) plate for ELISA and RNA isolation. To evaluate the anti-inflammatory properties, BMDMs were stimulated with E. coli-derived lipopolysaccharides (LPS; 055:B5; Sigma) at 50 ng/mL concentration for six hours alone or in combination with UroA or UAS03 at indicated concentrations (0.01, 0.1, 1, 10, 25, 50 μM) in quadruplicates. For cytokine production via ELISA, the supernatant was collected and centrifuged at 10,000×g for 10 min at 4° C. to pellet down any cell and cytokines were quantified using IL-6 and TNF-α specific ELISA kit (Biolegend) following manufacturer's instruction.
Screening for anti-inflammatory activities: Mouse bone marrow derived macrophages (BMDM) were plated in 96 wells plate for ELISA. To evaluate the anti-inflammatory properties, BMDMs were stimulated with E. coli-derived lipopolysaccharides (LPS; 055:B5; Sigma) at 50 ng/mL concentration for six hours alone or in combination with compounds at indicated concentrations in quadruplicates. For cytokine production via ELISA, the supernatant was collected and centrifuged at 12,000 rpm for 10 min at 4° C. to pellet down any cell and cytokines were quantified using IL-6 and TNF-α specific ELISA kit (Biolegend) following manufacturer's instruction. LPS induced IL-6 or TNF-α considered as 100%.

The next assay concerns C57BL/6 mice. Put plainly: TNBS-induced colitis. The format is in vivo, mouse. The conditions noted are these: for H&E analysis of colon sections / TNBS-induced body weight loss / TNBS-induced colon shortening / TNBS-induced downregulation of Cldn4 in colons / colon weight to length ratio / disease activity index (DAI) score / neutrophil infiltration (myeloperoxidase (MPO) activity) / serum inflammatory markers IL-6, TNF-α, CXCL1 and IL-10: oral 20 mg/kg at 12 h intervals; for loss of body weight, single treatment / TNBS-induced colitis, single treatment: single oral treatment at 4 or 20 mg/kg; for TNBS-induced colitis, single treatment: 12 h post TNBS. The method, then:
2,4,6-Trinitrobenzenesulfonic acid (TNBS)-induced colitis: Male C57BL/6 or Nrf2^−/− mice (6-8 week old age mice) were anesthetized with ketamine/xylazine (100 mg/12.5 mg/kg IP) mixture and administered with single dose of TNBS (2.5 mg/mice; Sigma Aldrich, USA) in 50% ethanol. After administration of TNBS, mice were held upside down for 30-60 sec to ensure proper distribution of TNBS in the colon. Control group received 50% ethanol without TNBS. Mice with TNBS were randomly divided into three groups, viz. vehicle (0.25% sodium carboxymethylcellulose (CMC)), UroA and UAS03. UroA or UAS03 was resuspended in 0.25% sodium-CMC at desired concentrations. The mice were given orally Veh or UroA or UAS03 in 100 μl at desired concentrations (4 or 20 mg/kg/body weight). The treatment started after 12 hours of TNBS administration and every 12 hours thereafter up to 72 hours. The experiment was terminated post 60 h TNBS, where AhR^−/− mice were involved. In some experiments, we treated only once at post 12 h TNBS administration. TNBS administered and control mice were euthanized for tissue and plasma collection after 80 hours of TNBS/ethanol treatment. Mice were examined for colitis phenotype.
Assessment of colitis severity and tissue collection: Mice were evaluated daily for change in body weight, stool consistency and rectal bleeding and score was given and combined to obtained disease activity index (MURTHY et al., (1993) “Treatment of dextran sulfate sodium-induced murine colitis by intracolonic cyclosporin” Dig Dis Sci, Vol. 38, pp. 1722-1734). After euthanasia, the colon was removed and flushed with PBS containing (1 mM PMSF and 0.2 mM sodium orthovanadate). Colon length and colon weight were measured and small parts of colon were excised for myeloperoxidase (MPO) activity and RNA isolation. Tissues for MPO and RNA extraction were snap frozen in liquid nitrogen and stored in −80° C. until further analysis. Tissue for histological examination was stored in 10% phosphate buffered saline formalin. Blood was collected and serum was separated by centrifugation at 3500×g for 15 min. Serum cytokines (IL-6, TNF-α; Biolegend) and chemokines (CXCL1; R&D Systems) levels were measured by ELISA according to manufacturer's instructions.
In vivo intestinal permeability assay: The gut barrier function was evaluated by in vivo intestinal permeability using FITC-Dextran (MW 4000; FD4, Sigma-Aldrich, USA) (FURUTA et al., (2001) “Hypoxia-inducible factor 1-dependent induction of intestinal trefoil factor protects barrier function during hypoxia” J Exp Med, Vol. 193, pp. 1027-1034). Briefly, mice were orally administered with FITC-dextran (60 mg/100 gm body weight). Mice were fasted for 4 h prior to euthanization. The FITC-dextran concentration in serum was determined using the standard curve of FITC-dextran in serum (excitation, 485 nm; emission, 525 nm; BMG LABTECH).
Myeloperoxidase (MPO) activity: The MPO activity in the colons was determined using the following procedure (KIM et al. (2012) “Investigating intestinal inflammation in DSS-induced model of IBD” J Vis Exp, Vol. 60, Article e3678 (6 pages)). Briefly, colon tissue was homogenized in 0.5% (w/v) hexadecyltrimethylammonium bromide (H6269; Sigma-aldrich, USA) in 50 mM PBS, pH 6.0. This homogenate underwent 3 freeze-thaw cycles and 10-15 sec sonication to obtain homogenous suspension. The supernatant from this suspension was collected after centrifiguaton at 13000×g for 20 min at 4° C. The supernatant (10 μl) was then added to 50 mM potassium phosphate buffer (pH 6.0) containing 0.167 mg/ml o-dianisidine (Sigma-Aldrich, USA) and 0.0005% H2O2(Sigma-Aldrich USA) and absorbance was taken at 450 nm (BMG, LABTECH) at 2 min interval. […]

As to `Oc1ccc2c(c1)COc1cc(O)ccc1-2` [UAS03, 6H-benzo[c]chromene-3,8-diol], in assay [1], the “LPS-induced IL-6 production in AhR^−/− macrophages” value was “did not block”; the “IL-6 in Nrf2^−/− (fold reduction; TNBS model and LPS-induced BMDM)” value is reported as “reduced IL-6 in Nrf2^−/− similar to WT”. Further, the “anti-inflammatory activities (LPS-induced IL-6 and TNF-α), analogue screening” value in assay [1] (LPS 50 ng/mL, six hours, compared UroA) was “effective anti-inflammatory compounds”. In addition, in assay [1] (LPS 50 ng/ml, 6 h), the “concentrations showing anti-inflammatory activities” value is reported as “nano molar concentrations”; the “LPS induced IL-6 and TNF-α” value was “decreased”. In the assay with C57BL/6 mice, the “H&E analysis of colon sections” value is “less tissue damage and inflammation scores”; the “TNBS-induced body weight loss” value is “protected”; the TNBS-induced colon shortening entry is “protected from TNBS-induced colon shortening”; the “TNBS-induced downregulation of Cldn4 in colons” value is “protected from TNBS-induced downregulation of Cldn4”. In addition, in the assay with C57BL/6 mice, the “colon weight to length ratio” value is listed as “reduced weight to length ratio”; the “disease activity index (DAI) score” value is “reduced”; the “neutrophil infiltration (myeloperoxidase (MPO) activity)” value is “reduced neutrophil infiltration”; the “serum inflammatory markers IL-6, TNF-α, CXCL1 and IL-10” value is “reduced”. In the assay on C57BL/6 mice, the “loss of body weight, single treatment” value is listed as “did not reach significance” and the “TNBS-induced colitis, single treatment” value is given as “mitigated TNBS-induced colitis”.
As to `O=c1oc2cc(O)ccc2c2ccc(O)cc12` [UroA, 3,8-dihydroxy-6H-dibenzo[b,d]pyran-6-one], in assay [1], the “LPS-induced IL-6 production in AhR^−/− macrophages” value was “did not block”; the “IL-6 in Nrf2^−/− (fold reduction; TNBS model and LPS-induced BMDM)” value is reported as “reduced IL-6 in Nrf2^−/− similar to WT”. Also, the “LPS induced IL-6 and TNF-α” value in assay [1] (LPS 50 ng/ml, 6 h) is given as “decreased”. In the assay on C57BL/6 mice, the “H&E analysis of colon sections” value was “less tissue damage and inflammation scores”; the “TNBS-induced body weight loss” value was “protected”; the TNBS-induced colon shortening entry is “protected from TNBS-induced colon shortening”; the “TNBS-induced downregulation of Cldn4 in colons” value is on record as “protected from TNBS-induced downregulation of Cldn4”. Also, in the assay on C57BL/6 mice, the “colon weight to length ratio” value is listed as “reduced weight to length ratio”; the “disease activity index (DAI) score” value is on record as “reduced”; the “neutrophil infiltration (myeloperoxidase (MPO) activity)” value was “reduced neutrophil infiltration”; the “serum inflammatory markers IL-6, TNF-α, CXCL1 and IL-10” value was “reduced”. Further, in the assay on C57BL/6 mice, the “loss of body weight, single treatment” value is recorded as “did not reach significance” and the “TNBS-induced colitis, single treatment” value is “mitigated TNBS-induced colitis”.
